Here are results for seven compounds from patent US11241507B2, “Near-infrared chemiluminescent probes for in-vivo imaging” (RAMOT AT TEL-AVIV UNIVERSITY LTD., priority 2017, dated 2022).

A short description of data set [1]: Chemiluminescence properties of NIR luminophores under physiological conditions. Format: physicochemical. Conditions: for ΦCL (chemiluminescence efficiency) / λ maxCL (maximal chemiluminescence emission): physiological conditions. On the procedure:
All reactions requiring anhydrous conditions were performed under an argon atmosphere. All reactions were carried out at room temperature unless stated otherwise. Chemicals and solvents were either A.R. grade or purified by standard techniques. TLC: silica gel plates Merck 60 F254: compounds were visualized by irradiation with UV light. Column chromatography (FC): silica gel Merck 60 (particle size 0.040-0.063 mm), eluent given in parentheses. RP-HPLC: C18 5u, 250×4.6 mm, eluent given in parentheses. Preparative RP-HPLC: C18 5u, 250×21 mm, eluent given in parentheses. ^1H-NMR spectra were recorded using Bruker Avance operated at 400 MHz. ^13C-NMR spectra were recorded using Bruker Avance operated at 100 MHz. Chemical shifts were reported in ppm on the δ scale relative to a residual solvent (CDCl3: δ=7.26 for ^1H-NMR and 77.16 for ^13C-NMR, DMSO-d6: δ=2.50 for ^1H-NMR and 39.52 for ^13C-NMR). Mass spectra were measured on Waters Xevo TQD. Fluorescence and chemiluminescence were recorded on Molecular Devices Spectramax i3x. Fluorescence quantum yield was determined using Hamamatsu Quantaurus-QY. All reagents, including salts and solvents, were purchased from Sigma-Aldrich. Light irradiation for photochemical reactions: LED PAR38 lamp (19 W, 3000K).
Next, we incubated our luminophores under physiological conditions and evaluated their properties. […] As expected, the chemiluminescence emission spectra correlate with the fluorescence spectra of their corresponding decomposition benzoate esters products. […] This difference is attributed to the reduced pKa of Luminophore 2, which accelerate the generation of enriched phenolate population that spontaneously undergoes the chemiexcitation process. The chemiluminescence efficiency of Luminophores 1 and 2 was calculated to be 0.82% and 1.12% respectively. These outstanding results encouraged us to investigate the imaging features of our NIR luminophores to serve as a reporter both in-vitro and in-vivo bioassays.

The subject of data set [2] is endogenous H2O2. Put plainly: In-vivo imaging of endogenous H2O2 in peritoneal cavity of mice, LPS-induced peritonitis. On the procedure: (§1) FIGS. 4A-4C show the chemiluminescent kinetic profile of Probe 2a [10 μM] in serum, in the presence and absence of H2O2[50 μM] (4A); in-vivo imaging of endogenous H2O2 in the peritoneal cavity of mice during an LPS-induced inflammatory response, using probes 2a and 2b. Images of mice were recorded on BioSpace Lab PhotonIMAGER™. Group A: 1 mL of 0.1 mg/mL LPS was injected into the peritoneal cavity of mice, followed 4 h later by an IP injection of Probe 2a [100 μM, 100 μL in PBS]. Group B: 1 mL of 0.1 mg/mL LPS was injected into the peritoneal cavity of mice, followed 4 h later by an IP injection of Probe 2b [100 μM, 100 μL in PBS]. Group C: 1 mL PBS 7.4 was injected into the peritoneal cavity of mice, followed 4 h later by an IP injection of Probe 2a [100 μM, 100 μL in PBS 7.4] (4B); and quantification of signal intensities evolved from each group of mice (4C).
Since we established that our luminophores can serve as chemiluminescence reporter for in-vitro imaging we wanted to test their ability to image a whole animal. We tested the ability of Probe 2a to detect endogenous H2O2 by using a mouse model peritonitis that was induced by intraperitoneal injection of lipopolysaccharide (LPS). […] Three groups of mice were applied: (A) mice that were treated with LPS followed by the injection of probe 2a; (B) mice that were treated with LPS followed by the injection of Probe 2b; and (C) mice that were treated with vehicle control (PBS 7.4) followed by the injection of Probe 2a.
After 1 minute, a ratio of 19 was observed comparing the signal intensities of LPS treated and non-LPS treated mice which were injected with Probe 2a (groups A and C).

Data set [3] is described as follows: Chemiluminescence kinetic profile of probe in presence and absence of H2O2. The settings on record: probe 10 μM in serum, presence vs absence of H2O2 50 μM. On the procedure: as §1
At first, we wanted evaluated the ability of Probe 2a to detect H2O2, therefore we incubated Probe 2a in the presence and absence of H2O2 and monitored the emitted light.

For data set [4], the system named is β-galactosidase. Put plainly: Chemiluminescence kinetic profile of probes in presence and absence of β-galactosidase. The settings on record: 37° C. The format is biochemical. On the procedure: FIGS. […] (1A); chemiluminescence imaging of Probe 1a [5 μM] in HEK293 cells (1B); and quantification of signal intensities evolving from HEK293 cells (1C).
(§2) The spectral performance of Probe 1a was evaluated by measuring the chemiluminescent signal over time while its incubation took place under physiological conditions in the presence and absence of β-galactosidase (FIG. 1A). […] The emission spectra of 1a overlaps with its parent Luminophore 1 as expected. Next, we investigated the feasibility of Probe 1a to image the over expression of endogenous β-galactosidase in HEK293 cells transfected with the LacZ gene. We incubated Probe 1a with HEK293-LacZ and HEK293-wt cells. […] The chemiluminescence signal was quantified as depicted in FIG. 1C.
The study in which the feasibility of Probe 1a to image the over expression of endogenous β-galactosidase in HEK293 cells transfected with the LacZ gene was repeated using Probe 3a, corresponding to Luminophore 3 wherein the phenol is masked with a β-galactosidase substrate as the responsive protecting group, and a short polyethylene-glycol ester is introduced instead of the […] acid residue, considering that cell permeability is reduced by negatively charged species.

The target in data set [5] is T1, β-galactosidase in HEK293 cells transfected with the LacZ gene (Escherichia coli, UniProt P00722).
T1 construct: expressed in transfected cells; host or cells: HEK293 (HEK293-LacZ)
T1 sequence (P00722 whole entry): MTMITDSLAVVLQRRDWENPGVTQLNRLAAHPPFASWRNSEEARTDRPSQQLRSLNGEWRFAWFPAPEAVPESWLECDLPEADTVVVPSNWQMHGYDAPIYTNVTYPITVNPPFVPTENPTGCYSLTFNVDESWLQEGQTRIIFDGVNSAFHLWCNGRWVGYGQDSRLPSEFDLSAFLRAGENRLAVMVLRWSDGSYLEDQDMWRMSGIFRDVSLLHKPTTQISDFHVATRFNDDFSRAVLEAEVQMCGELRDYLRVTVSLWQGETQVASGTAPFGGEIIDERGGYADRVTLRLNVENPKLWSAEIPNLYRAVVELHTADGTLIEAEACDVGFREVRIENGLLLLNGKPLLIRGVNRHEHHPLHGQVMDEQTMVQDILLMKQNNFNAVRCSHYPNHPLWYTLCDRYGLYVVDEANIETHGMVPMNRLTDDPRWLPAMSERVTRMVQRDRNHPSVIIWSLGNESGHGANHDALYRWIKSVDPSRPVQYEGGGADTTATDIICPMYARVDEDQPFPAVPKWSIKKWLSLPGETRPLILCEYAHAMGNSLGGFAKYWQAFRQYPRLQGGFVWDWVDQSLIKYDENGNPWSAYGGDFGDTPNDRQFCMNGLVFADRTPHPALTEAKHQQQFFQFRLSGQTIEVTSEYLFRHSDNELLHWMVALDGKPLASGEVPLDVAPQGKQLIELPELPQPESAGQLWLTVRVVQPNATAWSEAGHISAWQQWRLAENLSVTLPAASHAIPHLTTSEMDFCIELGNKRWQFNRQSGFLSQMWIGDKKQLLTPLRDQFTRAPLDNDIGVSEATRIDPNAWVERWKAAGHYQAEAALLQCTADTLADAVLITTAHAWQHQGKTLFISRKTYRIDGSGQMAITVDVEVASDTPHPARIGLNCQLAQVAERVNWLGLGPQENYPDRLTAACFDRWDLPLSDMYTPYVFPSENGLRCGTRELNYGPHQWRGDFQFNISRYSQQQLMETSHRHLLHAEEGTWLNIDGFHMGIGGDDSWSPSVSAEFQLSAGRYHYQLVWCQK
The data set is described as follows: Chemiluminescence imaging of HEK293-LacZ versus HEK293-wt cells. The format is cell-based. On the procedure: FIGS. 1A-1C show the chemiluminescence kinetic profiles of probes 1a [10 μM] in PBS, pH 7.4, in the presence and absence of 1.5 units/mL β-galactosidase at 37° C. (1A); chemiluminescence imaging of Probe 1a [5 μM] in HEK293 cells (1B); and quantification of signal intensities evolving from HEK293 cells (1C).
Images were obtained following 20 minutes incubation with cell culture medium containing Probe 3a (5 μM), and were recorded on BioSpace Lab PhotonIMAGER™.
as §2
In order to investigate the feasibility of Probe 3a to monitor the enzymatic activity of β-galactosidase in vitro, the probe [1 μM] was incubated for 30 minutes with transfected HEK293-LacZ cell that overexpress the enzyme β-galactosidase, and under the same conditions with HEK293-wt cell as a control. The chemiluminescent signal was collected for 4 hours from the samples and quantified as depicts in FIG. 3.

[6] abbreviates: probe 1 μM, 30 minutes incubation.

A word on the pKa: it is the pH at which an ionisable group is half protonated.

Take `COC1(c2cc(O)ccc2/C=C/C2=CC(=C(C#N)C#N)c3ccccc3O2)OOC12C1CC3CC(C1)CC2C3` (stereo not drawn) [Luminophore 1]: in data set [1], the pKa was around 8.8, the “ΦCL (chemiluminescence efficiency)” value stood at 0.82% and the “λ maxCL (maximal chemiluminescence emission)” value (from here on “λ maxCL”) was 660 nm.
Consider `COC1(c2cc(B3OC(C)(C)C(C)(C)O3)c(/C=C/C(=O)O)cc2/C=C/C2=CC(=C(C#N)C#N)c3ccccc3O2)OOC12C1CC3CC(C1)CC2C3` (stereo not drawn) [Probe 2a], for which the “chemiluminescence signal right after probe injection” value in data set [2] (group A (LPS + Probe 2a) compared with groups B and C) was “efficient chemiluminescence signal”. For the same compound, the “signal ratio, LPS treated mice injected with Probe 2a vs Probe 2b” value in data set [2] (groups A and B, IP probe 100 μM, 100 μL in PBS, 4 h after LPS) is 45. Besides, in data set [2] (groups A and C, IP probe 100 μM, 100 μL in PBS, 4 h after LPS or PBS, after 1 minute), the “ratio of signal intensities, LPS treated vs non-LPS treated mice” value came to 19. Further, the signal-to-noise ratio in data set [3] stood at 57.
With `COC1(c2cc(O[C@@H]3OC(CO)[C@H](O)C(O)C3O)ccc2/C=C/C2=CC(=C(C#N)C#N)c3ccccc3O2)OOC12C1CC3CC(C1)CC2C3` (stereo partly drawn) [Probe 1a], the signal-to-noise ratio in data set [4] (probe 10 μM in PBS pH 7.4, presence vs absence of 1.5 units/mL β-galactosidase) is reported as 17. Moreover, the “ratio between signal intensities of transfected cells to wild type cells” value in data set [5] (HEK293-LacZ vs HEK293-wt, probe 5 μM) was 14. Besides, in data set [5] (probe 5 μM), the “chemiluminescent signal in HEK293-LacZ cells” value is reported as “intense chemiluminescent signal” and the “chemiluminescent signal in HEK293-wt cells” value is given as “negligible chemiluminescent signal”.
Take `COC1(c2cc(O)c(/C=C/C(=O)O)cc2/C=C/C2=C(C#N)C(=C(C#N)C#N)OC2(C)C)OOC12C1CC3CC(C1)CC2C3` (stereo not drawn) [Luminophore 3]: in data set [1], the pKa is 7.71, the “ΦCL (chemiluminescence efficiency)” value is on record as 0.70% and the “λ maxCL” value amounted to 670 nm.
Take `COC1(c2cc(O)c(/C=C/C(=O)O)cc2/C=C/C2=CC(=C(C#N)C#N)c3ccccc3O2)OOC12C1CC3CC(C1)CC2C3` (stereo not drawn) [Luminophore 2]: in data set [1], the pKa is 7.35, the “ΦCL (chemiluminescence efficiency)” value was 1.12% and the “λ maxCL” value was found to be 690 nm.
Regarding `COC1(c2ccc(/C=C/C3=CC(=C(C#N)C#N)c4ccccc4O3)c(O)c2Cl)OOC12C1CC3CC(C1)CC2C3` (stereo not drawn) [Luminophore 4], in data set [1], the pKa came to 6.72, the “ΦCL (chemiluminescence efficiency)” value was determined as 0.95% and the “λ maxCL” value turned out to be 730 nm.
In the case of `COCCOCCOCCOCCOC(=O)/C=C/c1cc(/C=C/C2=C(C#N)C(=C(C#N)C#N)OC2(C)C)c(C2(OC)OOC23C2CC4CC(C2)CC3C4)cc1OCc1ccc(O[C@@H]2OC(CO)[C@H](O)[C@H](O)C2O)cc1` (stereo partly drawn) [Probe 3a], the signal-to-noise ratio in data set [4] (probe 1 μM in PBS (100 mM) 7.4 with 10% serum, presence vs absence of β-galactosidase 1.5 EU/mL) turned out to be 43. The “signal ratio between transfected cells to wild type” value in data set [5] (HEK293-LacZ vs HEK293-wt, probe 1 μM incubated 30 minutes, signal collected 4 hours) is on record as 17. In addition, in data set [5] (setting [6]), the “chemiluminescent signal in HEK293-LacZ cells” value is “intense chemiluminescent signal” and the “chemiluminescent signal in HEK293-wt cells” value is “unneglectable chemiluminescent signal”.
